Bounds are passed on as bounds.

In the assay the target is human VPS34 (Homo sapiens (Human), UniProt Q8NEB9). The assay is described as follows: Human VPS34 enzyme assay (Adapta TR-FRET). The class given is biochemical. Conditions: for inhibition at 1.11 µM: 1 h, inhibition of VPS34 at a 1.11 μM concentration, read-out: Percent Inhibition; for IC50: human VPS34 enzyme assay, IC50 ranges. The procedure: VPS34 (accession number GB:BC033004) was cloned into pDEST20-Thombin as N-terminal GST tagged fusion proteins using the Gateway system (Invitrogen, catalog#11804-013). The sequences were verified before recombinant protein expression using the Baculovirus Expression System with Gateway® Technology. For expression VPS34 was infected at 1 MOI in SF9 cells and harvested 72 hours post infection. For purification, VPS34 is purified by Glutathione Sepharose 4 Fast Flow (GE Healthcare #17-5132-03) followed by HiTrap Q (GE Healthcare #17-1153-01). Human VPS34 Enzyme Assay Method 100 nL compounds in DMSO are added to wells of a 384 well microtitre plate (Greiner 780076). At room temperature: 5 ul VPS34 reaction buffer (Invitrogen Assay Buffer Q (diluted 1 in 5 with nanopure water) plus 2 mM DTT and 2 mM MnCl2) containing ATP (20 uM, Promega) and 200 uM PI-PS substrate (Invitrogen PV5122) is added followed immediately by 5 ul VPS34 reaction buffer (as above) containing VPS34 (5 nM, Millennium Protein Sciences Group) and the mixture is incubated with shaking at room temperature for 1 hour. Then 5 ul […]-detect mix (as per Invitrogen Adapta Assay kit (PV5009) instructions (contains kinase quench buffer, TR-FRET buffer, Adapta Eu anti-ADP antibody and Alexa Fluor 647 ADP tracer)) is added to quench the reaction. The plates are then incubated for 30 minutes at room temperature with shaking and then read on a BMG PheraStar Plus reader. For the assay methods described above, test compound percent inhibition, at various concentrations, is calculated relative to control (DMSO and EDTA) treated samples. Compound concentration versus percent inhibition curves are fitted to generate IC50 values. One skilled in the art will appreciate that the values generated either as percentage inhibition at a single concentration or IC50 values are subject to experimental variation. […] Additionally, compounds of the invention that inhibit VPS34 are described with the following IC50 ranges: […]
human VPS34, sequence (Q8NEB9 whole entry, the tested form may be a part): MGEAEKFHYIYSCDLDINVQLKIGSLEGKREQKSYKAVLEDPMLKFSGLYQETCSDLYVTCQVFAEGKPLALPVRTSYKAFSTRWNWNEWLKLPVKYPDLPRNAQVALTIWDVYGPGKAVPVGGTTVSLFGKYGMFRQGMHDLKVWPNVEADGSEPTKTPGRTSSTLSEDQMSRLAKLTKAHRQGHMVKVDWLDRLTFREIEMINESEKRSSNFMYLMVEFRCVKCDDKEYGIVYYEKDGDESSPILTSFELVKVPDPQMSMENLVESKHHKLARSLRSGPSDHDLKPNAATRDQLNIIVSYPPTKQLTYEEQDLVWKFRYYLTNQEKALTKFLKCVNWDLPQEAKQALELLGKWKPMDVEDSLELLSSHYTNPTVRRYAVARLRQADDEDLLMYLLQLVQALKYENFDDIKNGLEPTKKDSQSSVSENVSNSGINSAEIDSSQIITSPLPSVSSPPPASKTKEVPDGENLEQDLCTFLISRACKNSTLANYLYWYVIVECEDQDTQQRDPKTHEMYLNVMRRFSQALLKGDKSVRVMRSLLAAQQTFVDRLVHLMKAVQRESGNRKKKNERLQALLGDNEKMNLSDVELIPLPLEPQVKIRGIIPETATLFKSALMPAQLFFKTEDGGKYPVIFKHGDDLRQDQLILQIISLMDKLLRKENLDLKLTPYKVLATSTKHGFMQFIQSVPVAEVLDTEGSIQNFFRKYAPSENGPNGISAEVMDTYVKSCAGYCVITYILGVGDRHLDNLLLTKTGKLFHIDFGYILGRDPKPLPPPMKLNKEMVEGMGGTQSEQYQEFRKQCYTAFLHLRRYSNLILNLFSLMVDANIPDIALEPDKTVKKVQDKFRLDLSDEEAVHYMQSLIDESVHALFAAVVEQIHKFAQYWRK
(TR-FRET usually uses a lanthanide donor and a delayed reading to cut background.)

One may read the inhibition as how much of the control response was suppressed. What is called IC50 is the concentration that gives 50% inhibition. On to `COC(=O)Nc1cc(-c2cncc3c2ccn3S(=O)(=O)N(C)C)ccn1` [Compound I-17, methyl {4-[1-(dimethylsulfamoyl)-1H-pyrrolo[2,3-c]pyridin-4-yl]pyridin-2-yl}carbamate], for which the inhibition at 1.11 µM is > 99% and the IC50 is < 10 nM.
Regarding `COC(=O)Nc1cc(-c2cncc3c2ccn3S(C)(=O)=O)ccn1` [Compound I-29, methyl {4-[1-(methylsulfonyl)-1H-pyrrolo[2,3-c]pyridin-4-yl]pyridin-2-yl}carbamate], the inhibition at 1.11 µM was > 99% and the IC50 lay in the range of 10 to 50 nM.
With `CCOC(=O)Nc1cc(-c2cnc(C)c3c2ccn3S(=O)(=O)C2CC2)ccn1` [Compound I-42, ethyl {4-[1-(cyclopropylsulfonyl)-7-methyl-1H-pyrrolo[2,3-c]pyridin-4-yl]pyridin-2-yl}carbamate], the inhibition at 1.11 µM was > 99% and the IC50 was < 10 nM.
In the same order, the values of `CC(=O)Nc1cc(-c2cncc3c2ccn3S(=O)(=O)C2CC2)c(F)cn1` [Compound I-8, N-{4-[1-(cyclopropylsulfonyl)-1H-pyrrolo[2,3-c]pyridin-4-yl]-5-fluoropyridin-2-yl}acetamide] are > 99% and 10 to 50 nM.
`Cc1nccc(Nc2cc(-c3cnc(C)c4[nH]ccc34)ccn2)n1` [Compound I-51, 2-methyl-N-[4-(7-methyl-1H-pyrrolo[2,3-c]pyridin-4-yl)pyridin-2-yl]pyrimidin-4-amine]: the inhibition at 1.11 µM was determined as 91% and the half-inhibitory concentration (IC50) was in the range of 10 to 50 nM.
For the molecule `CC(=O)Nc1cc(-c2cncc3c2ccn3S(C)(=O)=O)ccn1` [Compound I-21, N-{4-[1-(methylsulfonyl)-1H-pyrrolo[2,3-]pyridin-4-yl]pyridin-2-yl}acetamide], the inhibition at 1.11 µM is > 99% and the IC50 was 10 to 50 nM.
The matching figures for `COC(=O)Nc1cc(-c2cncc3c2ccn3S(=O)(=O)C2CC2)ccn1` [Compound I-30, methyl {4-[1-(cyclopropylsulfonyl)-1H-pyrrolo[2,3-c]pyridin-4-yl]pyridin-2-yl}carbamate]: 99% and 10 to 50 nM.
As to `CC(=O)Nc1cc(-c2cncc3c2ccn3S(=O)(=O)c2ccccc2)ccn1` [Compound I-39, N-{4-[1-(phenylsulfonyl)-1H-pyrrolo[2,3-c]pyridin-4-yl]pyridin-2-yl}acetamide], the inhibition at 1.11 µM is > 99% and the half-maximal inhibitory concentration (IC50) is < 10 nM.
Regarding `CC(=O)Nc1cc(-c2cncc3c2cc(C)n3S(=O)(=O)c2ccccc2)ccn1` [Compound I-31, N-{4-[2-methyl-1-(phenylsulfonyl)-1H-pyrrolo[2,3-c]pyridin-4-yl]pyridin-2-yl}acetamide], the inhibition at 1.11 µM was > 99% and the IC50 was in the range of 10 to 50 nM.
`COC(=O)Nc1cc(-c2cnc(C)c3c2ccn3S(=O)(=O)C2CCCC2)ccn1` [Compound I-12, methyl {4-[1-(cyclopentylsulfonyl)-7-methyl-1H-pyrrolo[2,3-c]pyridin-4-yl]pyridin-2-yl}carbamate]: the inhibition at 1.11 µM is > 99% and the IC50 lay within 10 to 50 nM.
In the same order, the values of `CC(=O)Nc1cc(-c2cncc3[nH]ccc23)ccn1` [Compound I-20, N-[4-(1H-pyrrolo[2,3-c]pyridin-4-yl)pyridin-2-yl]acetamide] are > 99% and 50 to 100 nM.
Regarding `COC(=O)Nc1cc(-c2cnc(C)c3c2ccn3S(C)(=O)=O)ccn1` [Compound I-38, methyl {4-[7-methyl-1-(methylsulfonyl)-1H-pyrrolo[2,3-c]pyridin-4-yl]pyridin-2-yl}carbamate], the inhibition at 1.11 µM came to 99% and the IC50 lay in the range of 10 to 50 nM.
As to `O=S(=O)(c1ccccc1)n1ccc2c(-c3ccnc(Nc4ncco4)c3)cncc21` [Compound I-13, N-(1,3-oxazol-2-yl)-4-[1-(phenylsulfonyl)-1H-pyrrolo[2,3-c]pyridin-4-yl]pyridin-2-amine], the inhibition at 1.11 µM is > 99% and the IC50 is 10 to 50 nM.

(Values after US10202373B2, “Heteroaryls and uses thereof” (MILLENNIUM PHARMACEUTICALS, INC., priority 2014, dated 2019).)
